Measurements published in patent publication US8247211B2, “Glycopeptide antibiotics” (American Cyanamid Company, priority 2001, dated 2012).
≈ marks a conversion by molar mass, not a printed value. Numbered stars: 1 amine (or outer) side, 2 acyl side, 3 side chain; on linkers, the order of the positions; unused ones are H or OH. Square brackets hold non-standard residues; d marks the D form. Peptide text beside a SMILES is read from it. * marks the point of attachment. ξ: configuration not given here. X1 = N=C1NCC(C(O)C(N[*:1])C(=O)[*:2])N1C1OC(CO)C(O)C(O)C1O; ξEnduracididine(βξ-OH,4'ξ) = N=C1NCC(C(O)C(N)C(=O)O)N1; X2 = OCC1OC(OC2C(CO)OC(*)C(O)C2O)C(O)C(O)C1O; Diphenylacetyl = O=C(C(c1ccccc1)c1ccccc1)*; ξPhe(βξ-Me) = CC(c1ccccc1)C(N)C(=O)O

Key:
Experiment in all cases: In vitro antibacterial evaluation: minimum inhibitory concentration (MIC), broth dilution method
Type in all cases: cell-based
[1] = system: Streptococcus sp.
Protocol: (§1) The minimum inhibitory concentration (MIC), the lowest concentration of the antibiotic which inhibits growth of the test organism, is determined by the broth dilution method using Muller-Hinton II […] (Baltimore Biological Laboratories) following the recommendations of the National Committee for Clinical Laboratory Standards [Methods for dilution antimicrobial susceptibility tests for bacteria that grow aerobically, approved standard M7-A2, National Committee for Clinical Laboratory Standards, Villanova, Pa].
(§2) An inoculum level of 5×10^5 CFU/mL, and a range of antibiotic concentrations (64-0.06 μg/mL) is used. […] The test organisms include a spectrum of Gram-positive bacteria comprised of Staphylococcus sp., Streptococcus sp. and Enterococcus sp. These organisms include recent clinical isolates that are resistant to methicillin, penicillin and/or vancomycin.

[2] = system: Enterococcus sp.; conditions: strain GC 4557
Protocol: as §1, §2

[3] = system: Staphylococcus sp.; conditions: for MIC Coagulase Negative Staphylococcus (GC 4549): strain GC 4549; for MIC Coagulase Negative Staphylococcus (ID-3941): strain ID-3941
Protocol: as §1, §2

[4] = broth dilution, 18 hours at 35° C.

CC(c1ccccc1)C1NC(=O)CNC(=O)C(COC(=O)C(c2ccccc2)c2ccccc2)NC(=O)C(C(O)C2CNC(=N)N2C2OC(CO)C(O)C(O)C2O)NC(=O)C(C(O)C2CNC(=N)N2)NC(=O)C(Cc2ccc(OC3OC(CO)C(OC4OC(CO)C(O)C(O)C4O)C(O)C3O)cc2)NC1=O (stereo not drawn) [Example 96a, Cyclo[glycyl-β-methylphenylalanyl-O-[4-O-hexopyranosylhexopyranosyl)tyrosyl-3-(2-iminoimidazolidin-4-yl)seryl-3-(3-hexopyranosyl-2-iminoimidazolidin-4-yl)seryl-O-(diphenylacetyl)-seryl]] (cyclo(G[ξPhe(βξ-Me)]Y(X2)[ξEnduracididine(βξ-OH,4'ξ)][X1]S(Diphenylacetyl)); configuration not given here)
MIC Streptococcus agalactiae (GC 4564) ([1]; strain GC 4564): 32 µg/mL (≈ 21.5 µM) | MIC Streptococcus pneumoniae (GC 4565) ([1]; strain GC 4565): 16 µg/mL (≈ 10.7 µM) | MIC Streptococcus pyogenes (ID-3187) ([1]; strain ID-3187): 32 µg/mL (≈ 21.5 µM) | MIC Enterococcus faecium (GC 4557) [2]: 32 µg/mL (≈ 21.5 µM) | MIC Coagulase Negative Staphylococcus (GC 4549) [3]: 64 µg/mL (≈ 43 µM) | MIC Coagulase Negative Staphylococcus (GC 4549) [3, 4]: 64 µg/mL (≈ 43 µM) | MIC Coagulase Negative Staphylococcus (ID-3941) [3]: 64 µg/mL (≈ 43 µM) | MIC Coagulase Negative Staphylococcus (ID-3941) [3, 4]: 64 µg/mL (≈ 43 µM)
